These results are taken from ChEMBL document CHEMBL1201862, “PubChem BioAssay data set” (2004).

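48-hour exposure; five concentrations; linearly interpolated endpoints. Abbreviation: GI50, concentration required for 50% inhibition of growth.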 Activity calls are given as the source filed them. Rule as the data show it: active = GI50 up to about 1.1 µM and inactive = higher.

Holding throughout (test): NCI anticancer screen, dose series, 48 h
Test [1] relates to SN12C.
In test [2] the test system is NCI-H460.
Test [3] relates to K562.
Test [4] deals with 786-0.
Test [5] deals with OVCAR-3.
In test [6] the test system is TK-10.
The subject of test [7] is NCI-H522.
Test [8] has as its system SF-539.
Test [9] has as its system UACC-62.
Test [10] relates to KM12.
For test [11], the system named is SK-MEL-28.
Test [12] has as its system MOLT-4.
In test [13] the test system is RXF 393.
In test [14] the test system is SNB-19.
Test [15] concerns MDA-N.
Test [16] deals with SF-268.
Test [17] deals with HL-60.
Test [18] has as its system ACHN.
Test [19] has as its system PC-3.
The subject of test [20] is HCC 2998.

Take `COC1OC(COC(=O)c2cc(O)c(O)c(O)c2)C(OC(=O)c2cc(O)c(O)c(O)c2)C(OC(=O)c2cc(O)c(O)c(O)c2)C1OC(=O)c1cc(O)c(O)c(O)c1` (stereo not given): the GI50 in test [1] is 27.2 µM (inactive); in test [2] it was 9.2 µM (inactive); in [3], 21.5 µM (inactive); in test [4] it was 13.3 µM (inactive); in [5] it was 29.9 µM (inactive); in [6], > 100 µM (inactive). In addition, the GI50 is 15 µM (inactive) in [7]; 12.4 µM (inactive) in test [8]; 14.4 µM (inactive) in test [9]; 22.4 µM (inactive) in test [10]; > 100 µM (inactive) in test [11]; 11.8 µM (inactive) in test [12]. The GI50 in test [13] is 64.1 µM (inactive); in test [14] it was 43.4 µM (inactive); in [15], 27.8 µM (inactive); in test [16] it was 27 µM (inactive); in test [17] it was 18.4 µM (inactive); in test [18] it was 19 µM (inactive). In addition, the figures for the GI50 in [19] and in test [20] were 50.7 µM (inactive) and 58.2 µM (inactive), respectively.

In the case of `CC(=O)OCC1OC(OC2CC3C(C)(C)C(OC(C)=O)CC[C@]3(C)C3CCC45CC4(CCC5[C@@H](C)C[C@H](O)C(O)C(C)(C)O)[C@]23C)C(O)C(O)C1O` (stereo not given in full), the GI50 in test [1] is > 10 µM (inactive); in test [2], > 10 µM (inactive); in test [3], 9.12 µM (inactive); in test [4] it was > 10 µM (inactive); in test [5], > 10 µM (inactive); in [6], > 10 µM (inactive). Also, the GI50 in test [7], in [8], in test [9], in test [10], in [11] and in test [12] was > 10 µM (inactive) throughout. The GI50 in test [13] was > 10 µM (inactive); in test [14], > 10 µM (inactive); in test [15], > 10 µM (inactive); in test [16], > 10 µM (inactive); in test [17], 9.44 µM (inactive); in [18], > 10 µM (inactive). For the same compound, the GI50 in [19] and in test [20] was > 10 µM (inactive) each time.

`O=C1/C(=C/c2ccc(F)cc2)CNC/C1=C\c1ccc(F)cc1`: the GI50 in [1] is 2.14 µM (inactive); in test [2] it was 0.675 µM (active); in test [3], 0.245 µM (active); in test [4] it was 0.762 µM (active); in test [5] it was 1.65 µM (inactive); in test [6], 2.21 µM (inactive). Also, the GI50 in test [7] is 1.53 µM (inactive); in test [8], 0.865 µM (active); in test [9], 2.32 µM (inactive); in test [10], 0.53 µM (active); in test [11] it was 1.05 µM (active); in test [12] it was 2.11 µM (inactive). Moreover, the GI50 in test [13] was 1.82 µM (inactive); in test [14], 1.59 µM (inactive); in test [15] it was 1.95 µM (inactive); in [16] it was 0.818 µM (active); in test [17], 0.383 µM (active); in test [18], 1.71 µM (inactive). For the same compound, the GI50 in test [19] is 1.79 µM (inactive); in [20], 0.214 µM (active).

Take `CCOP1(=O)CC(C)=C(Cl)C(OC)C1` (stereo not given): the GI50 in test [1] is > 100 µM (inactive); in [2] it was > 100 µM (inactive); in test [3], 30.5 µM (inactive); in test [4], > 100 µM (inactive); in [5], > 100 µM (inactive); in test [6] it was > 100 µM (inactive). Also, the GI50 in [7] is 34 µM (inactive); in [8] it was > 100 µM (inactive); in test [9] it was > 100 µM (inactive); in test [10] it was > 100 µM (inactive); in test [11] it was > 100 µM (inactive); in test [12], > 100 µM (inactive). Further, the GI50 was > 100 µM (inactive) in test [13]; > 100 µM (inactive) in test [14]; > 100 µM (inactive) in test [15]; > 100 µM (inactive) in test [16]; 57.1 µM (inactive) in test [17]; > 100 µM (inactive) in test [18]. Besides, the GI50 in test [19] and in test [20] was > 100 µM (inactive) throughout.

Regarding `COc1ccc(C(=O)CCN(C)C)c2ccccc12`, the GI50 in test [1] was 21.5 µM (inactive); in test [2], > 59.8 µM (inactive); in test [3], 29.7 µM (inactive); in test [4], 5.93 µM (inactive); in test [5], 16.3 µM (inactive); in test [6], > 38.3 µM (inactive). Moreover, the GI50 in test [7] was 5.21 µM (inactive); in test [8] it was 14.9 µM (inactive); in test [9], > 41.4 µM (inactive); in test [10] it was 19.5 µM (inactive); in test [11], 24.8 µM (inactive); in test [12], 17.9 µM (inactive). Moreover, the GI50 in [13] was 21.3 µM (inactive); in test [14] it was > 93.5 µM (inactive); in [15], 21.1 µM (inactive); in [16], 21.9 µM (inactive); in test [17] it was 15.6 µM (inactive); in [18] it was 18.3 µM (inactive). The GI50 is 17.6 µM (inactive) in test [19] and 18 µM (inactive) in test [20].

As for `COC(=O)c1c(C(=O)OC)c2ccc(-c3ccc(Cl)cc3)nn2c1C(=O)c1ccc([N+](=O)[O-])cc1`, the GI50 was > 100 µM (inactive) in [1]; > 100 µM (inactive) in [2]; 14.2 µM (inactive) in test [3]; 39.4 µM (inactive) in test [4]; 43.5 µM (inactive) in test [5]; 28.1 µM (inactive) in test [6]. The GI50 in test [7] was 17.4 µM (inactive); in test [8], 44.4 µM (inactive); in test [9] it was > 100 µM (inactive); in test [10], > 100 µM (inactive); in test [11], > 100 µM (inactive); in test [12] it was 15.3 µM (inactive). The GI50 is 8.83 µM (inactive) in test [13]; > 100 µM (inactive) in [14]; 66.2 µM (inactive) in [15]; 44.7 µM (inactive) in test [16]; < 0.01 µM (active) in test [17]; 43 µM (inactive) in [18]. For the same compound, the GI50 in test [19] and in [20] was > 100 µM (inactive) in each case.

For `COC1(OC)C2C=CC1C([C@](C)(N)CO)C2` (stereo not given in full), the GI50 in [1], in test [2], in test [3], in test [4], in test [5] and in [6] was > 100 µM (inactive) each time. For the same compound, the GI50 in [7], in test [8], in test [9], in test [10], in test [11] and in [12] was > 100 µM (inactive) throughout. For the same compound, the GI50 in test [13], in test [14], in [15], in test [16], in test [17] and in [18] was > 100 µM (inactive) each time. Also, the GI50 in test [19] and in test [20] was > 100 µM (inactive) each time.

Take `O=C1c2ccccc2C(=O)c2nn(N=P(CP(=Nn3nc4c(n3)C(=O)c3ccccc3C4=O)(c3ccccc3)c3ccccc3)(c3ccccc3)c3ccccc3)nc21`: the GI50 in test [1], in test [2], in test [3], in test [4], in test [5] and in test [6] was > 100 µM (inactive) each time. For the same compound, the GI50 in [7], in test [8], in test [9], in test [10], in test [11] and in [12] was > 100 µM (inactive) each time. Further, the GI50 was > 100 µM (inactive) in test [13]; > 100 µM (inactive) in test [14]; > 100 µM (inactive) in test [15]; > 100 µM (inactive) in test [16]; 36.3 µM (inactive) in test [17]; > 100 µM (inactive) in [18]. The GI50 in test [19] and in test [20] was > 100 µM (inactive) each time.

Consider `Nc1nc(SC/C=C/c2ccccc2)c2[nH]cnc2n1`, for which the GI50 is > 100 µM (inactive) in [1]; 72.1 µM (inactive) in test [2]; 63.2 µM (inactive) in test [3]; > 100 µM (inactive) in test [4]; 30.4 µM (inactive) in test [5]; 22.4 µM (inactive) in [6]. Besides, the GI50 in test [7] was 19.5 µM (inactive); in [8], > 100 µM (inactive); in test [9] it was > 100 µM (inactive); in [10] it was > 100 µM (inactive); in [11] it was > 100 µM (inactive); in [12], > 100 µM (inactive). For the same compound, the GI50 was 51.5 µM (inactive) in test [13]; > 100 µM (inactive) in [14]; > 100 µM (inactive) in test [15]; 74.8 µM (inactive) in [16]; 54.7 µM (inactive) in test [17]; 97.9 µM (inactive) in test [18]. For the same compound, the GI50 in [19] and in test [20] was > 100 µM (inactive) each time.

With `O=NN1CCNC1Cc1ccccc1` (stereo not given), the GI50 is 63 µM (inactive) in test [1]; 38.7 µM (inactive) in test [2]; > 100 µM (inactive) in [3]; 52.8 µM (inactive) in test [4]; > 100 µM (inactive) in test [5]; > 100 µM (inactive) in test [6]. Moreover, the GI50 in test [7] was 85.5 µM (inactive); in test [8], 48.9 µM (inactive); in [9], 46.8 µM (inactive); in test [10], > 100 µM (inactive); in test [11], > 100 µM (inactive); in [12], 27 µM (inactive). The GI50 in test [13] is 88.7 µM (inactive); in [14] it was 35.3 µM (inactive); in test [15] it was > 100 µM (inactive); in [16], 43.4 µM (inactive); in test [17], 37.6 µM (inactive); in [18] it was 37.6 µM (inactive). Moreover, the GI50 in [19] and in test [20] was > 100 µM (inactive) in each case.
